Experimental data taken from PMC8819291, “Adaptively evolved human oral actinomyces‐sourced defensins show therapeutic potential” (EMBO Molecular Medicine, 2021).
Marks after values point to notes of the source that are not given here. Where a SMILES comes first, the peptide text is derived from it. Bridges are numbered along the chain shown (N, C = ends).

Tests used:
[1] = Circular dichroism spectroscopy with UMP; assay type: binding; settings: 50 mM NH4OAc, room temperature
Procedure: The spectra were measured at room temperature from 300 to 200 nm by using a quartz cell of 1.0 mm thickness. Data were collected at 1‐nm intervals with a scan rate of 2 nm/s.

[2] = system: SSAN (Streptococcus sanguinis); test: Analysis of lysis in liquid culture; assay type: cell-based; settings: culture at OD600 of 0.2, 5–10 μM AMSIN, 24 h
[3] = undiluted human serum (Human Serum AB), 0, 24 and 48 h, 37°C; read-out MRSA P1374, 1.0 nmol/well
[4] = system: Staphylococcus aureus J710; test: Inhibition-zone assay (lethal concentration); assay type: cell-based; settings: Broth Medium, 37°C
Excerpt: (§1) Bacterial media used here included: Luria‐Bertani (LB) medium, THY medium (30 g Todd Hewitt broth and 5 g Yeast extract per liter), and tryptic soy broth (TSB) (Oxoid, Basingstoke, UK); Broth medium and brain–heart infusion (BHI) medium (Beijing Landbridge technology Limited by Share Ltd., Beijing, China); Potato dextrose (PD) medium (self‐prepared).
(§2) In brief, an overnight bacterial culture from a single colony was inoculated into fresh medium and grew to late log‐phase. A 10‐μl aliquot of each culture was diluted in 6‐ml pre‐heated medium containing 0.8% agar. The mixture was spread on a 9‐cm Petri dish, giving a depth of 1 mm. After settling, 3‐mm wells were punched in the plate and then 2‐μl peptide samples of different concentrations were added to each well. The agar plates were incubated overnight at indicated temperatures (Table EV4). A lethal concentration (C L ) was calculated from a plot of d^2 against log n, where d is the diameter (in cm) and n is the amount of sample applied in the well (in nmol). The plot is linear, and thus C L can be calculated from the slope (k) and the intercept (m) of this plot.

[5] = system: Methicillin‐resistant Staphylococcus aureus P1374; test: Inhibition-zone assay (lethal concentration); assay type: cell-based; settings: Broth Medium, 37°C
Excerpt: as §1, §2

[6] = system: penicillin‐resistant Staphylococcus aureus P1383; test: Inhibition-zone assay (lethal concentration); assay type: cell-based; settings: Broth Medium, 37°C
Excerpt: as §1, §2

[7] = system: Streptomyces scabiei CGMCC 4.1765 (ATCC 49173); test: Inhibition-zone assay (lethal concentration); assay type: cell-based; settings: Tryptone Soy Broth (TSB), 30°C
Excerpt: as §1, §2

[8] = system: Staphylococcus aureus J708; test: Inhibition-zone assay (lethal concentration); assay type: cell-based; settings: Broth Medium, 37°C
Excerpt: as §1, §2

[9] = system: Enterococcus faecalis V583 (ATCC 700802); test: Inhibition-zone assay (lethal concentration); assay type: cell-based; settings: BHI, 37°C
Excerpt: as §1, §2

[10] = system: Methicillin‐resistant Staphylococcus aureus P1386; test: Inhibition-zone assay (lethal concentration); assay type: cell-based; settings: Broth Medium, 37°C
Excerpt: as §1, §2

[11] = system: Streptococcus pneumoniae R6; test: Inhibition-zone assay (lethal concentration); assay type: cell-based; settings: THY, 5% CO2, 37°C
Excerpt: as §1, §2

[12] = system: Streptomyces griseus NBRC 13350; test: Inhibition-zone assay (lethal concentration); assay type: cell-based; settings: PD, 28°C
Excerpt: as §1, §2

[13] = system: Streptococcus pneumoniae ST556; test: Inhibition-zone assay (lethal concentration); assay type: cell-based; settings: THY, 5% CO2, 37°C
Excerpt: as §1, §2

[14] = system: Staphylococcus aureus J700; test: Inhibition-zone assay (lethal concentration); assay type: cell-based; settings: Broth Medium, 37°C
Excerpt: as §1, §2

[15] = system: Staphylococcus aureus J706; test: Inhibition-zone assay (lethal concentration); assay type: cell-based; settings: Broth Medium, 37°C
Excerpt: as §1, §2

[16] = system: Staphylococcus aureus J685; test: Inhibition-zone assay (lethal concentration); assay type: cell-based; settings: Broth Medium, 37°C
Excerpt: as §1, §2

[17] = system: Streptococcus sanguinis CGMCC 1.2497 (ATCC 49295); test: Inhibition-zone assay (lethal concentration); assay type: cell-based; settings: Broth Medium, 37°C
Excerpt: as §1, §2

[18] = system: Lysinibacillus fusiformis; test: Inhibition-zone assay (lethal concentration); assay type: cell-based; settings: Broth Medium, 37°C
Excerpt: as §1, §2

[19] = system: Streptococcus pneumoniae D39; test: Inhibition-zone assay (lethal concentration); assay type: cell-based; settings: THY, 5% CO2, 37°C
Excerpt: as §1, §2

[20] = system: penicillin‐resistant Staphylococcus epidermidis P1389; test: Inhibition-zone assay (lethal concentration); assay type: cell-based; settings: Broth Medium, 37°C
Excerpt: as §1, §2

[21] = system: Streptococcus salivarius CGMCC 1.2498 (ATCC 7073); test: Inhibition-zone assay (lethal concentration); assay type: cell-based; settings: Broth Medium, 37°C
Excerpt: as §1, §2

[22] = system: Streptococcus pneumoniae ST556 (StrR); test: Inhibition-zone assay (lethal concentration); assay type: cell-based; settings: streptomycin‐resistant strain; THY, 5% CO2, 37°C
Excerpt: as §1, §2

[23] = system: Staphylococcus aureus J698; test: Inhibition-zone assay (lethal concentration); assay type: cell-based; settings: Broth Medium, 37°C
Excerpt: as §1, §2

[24] = system: Bacillus megaterium CGMCC 1.0459; test: Inhibition-zone assay (lethal concentration); assay type: cell-based; settings: LB, 37°C
Excerpt: as §1, §2

[25] = system: penicillin‐sensitive Staphylococcus epidermidis P1111; test: Inhibition-zone assay (lethal concentration); assay type: cell-based; settings: Broth Medium, 37°C
Excerpt: as §1, §2

[26] = system: Streptococcus pneumoniae TIGR4; test: Inhibition-zone assay (lethal concentration); assay type: cell-based; settings: THY, 5% CO2, 37°C
Excerpt: as §1, §2

[27] = system: Bacillus subtilis CGMCC 1.2428; test: Inhibition-zone assay (lethal concentration); assay type: cell-based; settings: LB, 37°C
Excerpt: as §1, §2

[28] = system: Streptococcus mutans CGMCC 1.2499 (ATCC 25175); test: Inhibition-zone assay (lethal concentration); assay type: cell-based; settings: Broth Medium, 37°C
Excerpt: as §1, §2

[29] = system: Staphylococcus aureus CGMCC 1.89; test: Inhibition-zone assay (lethal concentration); assay type: cell-based; settings: Broth Medium, 37°C
Excerpt: as §1, §2

[30] = system: fresh erythrocytes from the female ICR mice; test: Hemolysis assay; assay type: cell-based, Mus musculus
Procedure: Hemolytic activity of peptides against fresh erythrocytes from the female ICR mice (Mus musculus) (25 g, 6 weeks of age) was assayed according to the standard method (Zhu et al, [2012]). Peptides were diluted with 0.9% NaCl to the indicated concentration. The percentage of hemolysis is determined as (A pep–A blank)/(A tot–A blank) × 100, in which “A” represents absorbance measured at 570 nm. A blank and A pep were evaluated in the absence or presence of peptides. One hundred percent hemolysis (A tot) was obtained in the presence of 1% Triton X‐100.

CC[C@H](C)[C@@H]1NC(=O)[C@H](CCCCN)NC(=O)CNC(=O)[C@H](CCCNC(=N)N)NC(=O)[C@@H]2CSSC[C@H](NC(=O)CNC(=O)[C@H](Cc3ccccc3)NC(=O)CN)C(=O)N3CCC[C@H]3C(=O)N[C@@H](Cc3c[nH]c4ccccc34)C(=O)N[C@@H](CC(N)=O)C(=O)N[C@@H](C)C(=O)N[C@@H](Cc3ccc(O)cc3)C(=O)N[C@@H](CCC(=O)O)C(=O)N[C@H]3CSSC[C@H](NC(=O)[C@H]([C@@H](C)O)NC(=O)[C@H](CCC(N)=O)NC(=O)[C@H](CCCNC(=N)N)NC1=O)C(=O)N[C@@H](Cc1c[nH]cn1)C(=O)N[C@H](C(=O)N[C@@H](Cc1ccc(O)cc1)C(=O)O)CSSC[C@H](NC(=O)[C@H](Cc1c[nH]cn1)NC(=O)[C@H](CCCNC(=N)N)NC(=O)[C@H](CC(=O)O)NC3=O)C(=O)N[C@@H](C(C)C)C(=O)N[C@@H](CO)C(=O)N[C@@H](CCCCN)C(=O)NCC(=O)N[C@@H](Cc1ccc(O)cc1)C(=O)N[C@@H]([C@@H](C)O)C(=O)NCC(=O)NCC(=O)N[C@@H](CC(N)=O)C(=O)N2 [AMSIN] (H-GFGCPWNAYECDRHCVSKGYTGGNCRGKIRQTCHCY-OH; disulfide 4-25, 11-33, 15-35; N-terminus and C-terminus assumed)
Complex with UMP by CD absorption signatures [1]: a complex was formed
Lysis of bacteria [2]: lytic effect
Activity in serum compared with in H2O [3]: slight decrease
Lethal concentration (C L) [4]: 2.60 µM
Lethal concentration (C L) [5]: 0.62 µM
Lethal concentration (C L) [6]: 4.28 µM
Lethal concentration (C L) [7]: 2.01 µM
Lethal concentration (C L) [8]: 1.14 µM
Lethal concentration (C L) [9]: 4.65 µM
Lethal concentration (C L) [10]: 0.74 µM
Lethal concentration (C L) [11]: 0.14 µM
Lethal concentration (C L) [12]: 2.89 µM
Lethal concentration (C L) [13]: 0.14 µM
Lethal concentration (C L) [14]: 5.20 µM
Lethal concentration (C L) [15]: 5.20 µM
Lethal concentration (C L) [16]: 10.40 µM
Lethal concentration (C L) [17]: 1.41 µM
Lethal concentration (C L) [18]: 0.27 µM
Lethal concentration (C L) [19]: 0.09 µM
Lethal concentration (C L) [20]: 1.14 µM
Lethal concentration (C L) [21]: 0.49 µM
Lethal concentration (C L) [22]: < 0.14 µM
Lethal concentration (C L) [23]: 5.20 µM
Lethal concentration (C L) ([24]; AMSIN alone): 0.11 µM
Lethal concentration (C L) ([24]; In combination with HNP1&2): 0.038 ^a µM
Lethal concentration (C L) ([24]; In combination with hLZc): 0.045 ^b µM
Lethal concentration (C L) [25]: 5.20 µM
Lethal concentration (C L) [26]: 0.14 µM
Lethal concentration (C L) [27]: 1.00 µM
Lethal concentration (C L) ([28]; AMSIN alone): 1.01 µM
Lethal concentration (C L) ([28]; In combination with HNP1&2): 0.38 ^a µM
Lethal concentration (C L) ([28]; In combination with hLZc): 0.56 ^b µM
Lethal concentration (C L) [29]: 5.20 µM
Hemolysis (%) ([30]; 6.25 μM, absorbance 570 nm, 100% = 1% Triton X‐100, technical replicate 1): 1.49%
Hemolysis (%) ([30]; 6.25 μM, technical replicate 2): 1.24%
Hemolysis (%) ([30]; 6.25 μM, technical replicate 3): 1.65%
Hemolysis (%) ([30]; 12.5 μM, technical replicate 1): 2.48%
Hemolysis (%) ([30]; 12.5 μM, technical replicate 2): 1.98%
Hemolysis (%) ([30]; 12.5 μM, technical replicate 3): 2.04%
Hemolysis (%) ([30]; 25 μM, technical replicate 1): 6.96%
Hemolysis (%) ([30]; 25 μM, technical replicate 2): 5.2%
Hemolysis (%) ([30]; 25 μM, technical replicate 3): 5.2%
